Holding throughout (assay type): in vivo
In series [1] the test system is tetrabenazine ptosis. Put plainly: Antagonism of tetrabenazine ptosis on mice, p.o. The following applies: for ED50: tetrabenazine 50 mg/kg i.p.
The test system of series [2] is tetrabenazine ptosis. Put plainly: Antagonism of tetrabenazine ptosis on rats, p.o. Here is the method:
(3) ANTAGONISM OF TETRABENAZINE PTOSIS, ON MICE AND RATS, P.O. […] The results are evaluated as follows: on the basis of all the measured data an average ptosis is calculated for each group and the deviation from the average of the control group is expressed in percent (inhibition). The ED50 values are calculated from the data thus obtained.

The nature of another series: Acute toxicity on mice. The following applies: mouse, in vivo, po, 7 days observation. The protocol: (§1) The test is carried out on male and female white mice belonging to the CFLP strain and weighing 18-22 g. The test compound is administered orally and the animals are observed for a period of 7 days. In the groups for each dose half of the animals are male and the other half are female. The animals are kept in a plastic box (39×12×12 cm) on scrapings litter at room temperature. The mice receive standard fodder and tap water ad libitum. The toxicity data are determined by the method of Litchfield-Wilcoxon.
(§2) The test compound is administered in an aqueous solution.

For a further series, the system named is reserpine ptosis. Kind of series: Antagonism of reserpine ptosis on rats, p.o. The following applies: for ED50: reserpine 2.5 mg./kg. s.c. Here is the method: The animals showing ptosis are counted until the effect decreases. The evaluation is carried out as described in connection with the previous ptosis test (test 3).
The test system of the next series is carrageenin oedema. Kind of series: Antiinflammatory effect on rats (carrageenin paw oedema). Conditions: for ED50: Rattus norvegicus, read-out: Oedema inhibitory effect ED50. The protocol: Into the planar surface of the hind leg of rats weighing 150-180 g. 0.1 ml. of 1% carrageenin is injected. The volume of the paw is determined before and 3 hours after the administration of the irritating agent with a plethysmometer. The animals are pre-treated with the test compound and the carrier (control), respectively, for an hour. Because of the different solubility properties Tween 80 as auxiliary agent is used.
Background: In the carrageenan paw model, swelling and tenderness develop within hours.

A further series can be described thus: Acute toxicity on rats. The following applies: rat, in vivo, po, 14 days observation.
Series [3] deals with aconitine-induced ECG changes. Put plainly: animal or person. The following applies: rats. The protocol: The test is carried out according to the modified method of Marmo et al. The test animals are narcotized with ethyl urethane (1.2 g./kg. i.p.). Aconitine is administered intravenously in the form of a bolus injection in a dose of 75 μg./kg. The changes of ECG are followed in standard II outlet 5 minutes after the administration of aconitine. The changes observed are evaluated with the aid of a scale from 0 to 5 points. The test compound is administered either intravenously 2 minutes before the addition of aconitine, or orally 1 hour before the aconitine administration.

The subject of another series is tremorine-induced tremor. Kind of series: Antitremorine effect on mice. The protocol:
20 mg./kg. of tremorine are administered i.p. to mice whereupon after 45 minutes the induced characteristic tremor is registered. The test compounds are administered orally 1 hour before the addition of tremorine.

Another series concerns mice. Kind of series: Acute toxicity on mice. The following applies: p.o., 7 days observation, 10080 min. Here is the method:
as §1, §2

The next series concerns rats. Kind of series: Acute toxicity on rats. Conditions: p.o., 14 days observation, 20160 min.
The mark [4] stands for this setting: Mus musculus, po, read-out: ED50.
Setting [5] is: Rattus norvegicus, po, read-out: ED50.
[6] abbreviates: 0.1 ml. of 1% carrageenin, 3 hours, pre-treated for an hour.
Where [7] appears, read: Rattus norvegicus, iv, i.v. 2 minutes before aconitine 75 μg./kg. i.v.
[8] abbreviates: Rattus norvegicus, po, p.o. 1 hour before aconitine 75 μg./kg. i.v.

In general, ED50 refers to the dose that gives a 50% effect, or the effect in half of the subjects. The term LD50 denotes the dose expected to kill half of the subjects tested. Lower therefore signals greater toxicity.

Structures are written as SMILES. Like-named read-outs stand apart in the source and are kept apart here.

As to `CN(C)CCC=C1c2ccccc2CCc2ccccc21` [Amitriptyline, N,N-dimethyl-3-[dibenzo[a,d]-cycloheptadiene-5-ylidene]-propylamine, reference compound], the ED50 in the series on tetrabenazine ptosis [1] (setting [4]) is 12 mg/kg; with reserpine ptosis (setting [5]), about 140 mg/kg. The Ther. index in the series with tetrabenazine ptosis [2] is 46; in the series on reserpine ptosis, 3.6. The LD50 at 168 h in the series “Acute toxicity on mice” was determined as 225 mg/kg.
As to `OC1(c2ccc(Cl)cc2)NC=N[n+]2ccc3ccccc3c21` (centres unmarked) [Compound A, 1-(4-chloro-phenyl)-1-hydroxy-1,2-dihydro-as-triazino[6,1-a]isoquinolinium-ethanesulfonate], the Ther. index was 1367 in the series on tetrabenazine ptosis [1]; 4333 in the series with tetrabenazine ptosis [2]; 53.1 with carrageenin oedema; 92.8 in the series with reserpine ptosis; 32.5 in series [3]. Also, the ED50 in the series with tetrabenazine ptosis [1] stood at 0.3 mg/kg; in the series on tetrabenazine ptosis [2], 0.3 mg/kg; in the series on carrageenin oedema (setting [6]), 24.5 mg/kg; in the series on reserpine ptosis (setting [5]), 14 mg/kg; in series [3] (setting [7]), 0.9 mg/kg; in series [3] (setting [8]), 40 mg/kg. For the same compound, the LD50 at 168 h in the series “Acute toxicity on mice” amounted to 410 mg/kg. In the series “Acute toxicity on rats”, the LD50 at 336 h came out at 1300 mg/kg.
On to `OC1(c2ccc(Cl)cc2)NC=N[n+]2ccc3ccccc3c21` (centres unmarked) [Compound B, 1-(4-chloro-phenyl)-1-hydroxy-1,2-dihydro-as-triazino[6,1-a]isoquinolinium-chloride], for which the Ther. index is 1867 with tetrabenazine ptosis [1]; 93.3 in the series on tremorine-induced tremor; 1100 in the series on tetrabenazine ptosis [2]; 39.3 with reserpine ptosis; 27.5 in series [3]. In addition, the 50% effective dose (ED50) in the series with tetrabenazine ptosis [1] came out at 0.3 mg/kg; in the series on tremorine-induced tremor (Mus musculus, po, p.o. 1 hour before tremorine 20 mg./kg. i.p.), 6 mg/kg; in the series on tetrabenazine ptosis [2], 1.0 mg/kg; in the series with reserpine ptosis, 28 mg/kg; in series [3] (i.v. 2 minutes before aconitine 75 μg./kg. i.v.), 1.6 mg/kg; in series [3] (p.o. 1 hour before aconitine 75 μg./kg. i.v.), 30 mg/kg. The LD50 is reported as 560 mg/kg with mice and “about 1100 mg/kg” in the series on rats.
As to `OC1(c2ccc(Cl)cc2)NC=N[n+]2ccc3ccccc3c21` (centres unmarked) [Compound C, 1-(4-chloro-phenyl)-1-hydroxy-1,2-dihydro-as-triazino[6,1-a]isoquinolinium-bromide], the Ther. index with tetrabenazine ptosis [1] amounted to 203; in the series on tetrabenazine ptosis [2] it was 191; with reserpine ptosis it was 49.0. In addition, the median effective dose (ED50) in the series with tetrabenazine ptosis [1] is 2.9 mg/kg; in the series with tetrabenazine ptosis [2] it was 5.4 mg/kg; with reserpine ptosis it was 21 mg/kg. The LD50 in the series with mice was 590 mg/kg; in the series with rats it was “about 1030 mg/kg”.
Take `CCN(CC)CC(=O)Nc1c(C)cccc1C` [Lidocain, α-diethylamino-2,6-dimethyl-acetanilide, reference compound]: the results for the ED50 in [3] (setting [7]) and in [3] (setting [8]) were 4 mg/kg and 120 mg/kg, respectively. Moreover, in series [3] (i.v. and p.o.), the “Antiarrhythmial effect (in words)” value is “inactive”. Besides, the “Antiarrhythmial effect (percent in parentheses)” value in [3] (p.o., at 120 mg./kg.) is 3.5%.
Consider `CCCCC1C(=O)N(c2ccccc2)N(c2ccccc2)C1=O` [Phenylbutazon, 4-butyl-1,2-diphenyl-3,5-pyrazolidine-dione], for which, in the series with carrageenin oedema, the Ther. index is 5.3. In the series on carrageenin oedema (setting [6]), the ED50 is about 90 mg/kg.
`Clc1ccc(-c2ncn[n+]3ccc4ccccc4c23)cc1` [Reference compound D, 1-(4-chloro-phenyl)-as-triazino[6,1-a]isochinolinium-bromide, reference compound]: the ED50 in the series on tetrabenazine ptosis [1] (setting [4]) is 3.2 mg/kg; in the series on tetrabenazine ptosis [2] (setting [5]), 5.6 mg/kg; in the series on reserpine ptosis (setting [5]), about 60 mg/kg. The “Antitremorine effect ED50” value with tremorine-induced tremor (p.o. 1 hour before tremorine 20 mg./kg. i.p.) was “inactive”. Moreover, the Ther. index in the series on tetrabenazine ptosis [2] was found to be 179; with reserpine ptosis it was 16.7. Besides, the median lethal dose (LD50) at 168 h in the series “Acute toxicity on mice” worked out at 600 mg/kg. Besides, the “Oedema inhibitory effect ED50” value with carrageenin oedema (setting [6]) was “no effect”.

Values taken from patent publication US4602018A, “Condensed as-triazine derivatives” (Egyt Gyogyszevegyeszeti Gyar, priority 1983, dated 1986).
